“Also recorded” adds a separate entry of the source. A value given as a limit tells only on which side of the number the result lay.

We go through 2 compounds from patent publication US5681826A, “Saccharide composition with reduced reducibility, and preparation and uses thereof” (Kabushiki Kaisha Hayashibara Seibutsu Kagaku Kenkyujo, priority 1994, dated 1997).

Series [1] can be described thus: Reducing power on the Somogyi-Nelson's method expressed by DE. Type of series: physicochemical. As to conditions: d.s.b. Here is the method: The reducing powders of these novel high-purity saccharides were determined on the Somogyi-Nelson's method and expressed by DE.
Series [2] is described as follows: Maillard reaction with glycine, absorbance at 480 nm. As to conditions: for Coloration degree (480 nm): one % glycine, 10% saccharide, pH 7.0, 100°C., 90 min, 1-cm cell. Type of series: physicochemical. Here is the method: A solution, containing one % glycine and 10% of a saccharide preparation PI, P II, P III, P IV or P V in Experiment 4 and 50 mM phosphate buffer (pH 7.0), was kept at 100° C. for 90 min, followed by cooling the resultant solution, and determining for absorbance at a wave length of 480 nm in a 1-cm cell. As a control, maltotriose, maltotetraose, maltopentaose, maltohexaose and maltoheptaose, as a material for the saccharide preparations, were similarly treated as above, and measured for absorbance at a wave length of 480 nm.
A solution, containing one % of glycine, 10% of a high-purity trehalose preparation with a purity of 99.5%, d.s.b., obtained by the method in Experiment 17, and 50 mM phosphate buffer (pH 7.0), was kept at 100° C. for 90 min, followed by cooling the resultant solution and determining the absorbance at a wave length of 480 nm in a 1-cm cell. As a control, glucose and maltose were similarly treated as above, and the resultants were determined for absorbance at a wave length of 480 nm.

The next series deals with glucoamylase. Put plainly: Enzymatic hydrolysis by glucoamylase. Format: biochemical. The protocol:
Fifty mg aliquots of non-reducing saccharide preparations P I, P II, P III, P IV and P V in Experiment 4 were respectively dissolved in one ml of 50 mM acetate buffer (pH 4.5), admixed with one unit of glucoamylase commercialized by Seikagaku-Kogyo Co., Ltd., Tokyo, Japan, to effect enzymatic hydrolysis at 40° C. for 6 hours. HPLC analysis only detected glucose and trehalose in all resultant mixtures. The percentages and the molecular ratios of glucose to trehalose in each saccharide are in Table 5.

Another series deals with β-amylase. Put plainly: Hydrolysis by β-amylase. Type of series: biochemical.
The subject of the next series is α-amylase. Put plainly: Hydrolysis by α-amylase derived from pig pancreas. Type of series: in vitro ADME. The protocol:
(§1) The enzymatic reaction with the α-amylase was as follows: Dissolve 10 mg of a substrate in one ml of 50 mM phosphate buffer (pH 6.9), mix the resultant solution with one unit of the α-amylase, and incubate the resultant mixture at 37° C. for 18 hours. The enzymatic reaction with the α-glucosidase was conducted under the same conditions as in the case of α-amylase except that 50 mM acetate buffer (pH 4.0) was used as a buffer. The enzymatic reaction using the rat intestinal acetone powder was carried out under the same conditions as in the case of α-amylase except that 50 mM maleate buffer (pH 6.0) was used as a buffer. The saccharide compositions obtained by the α-amylase, α-glucosidase and rat intestinal acetone powder are respectively in Tables 6, 7 and 8.

The test system of a further series is α-glucosidase. Put plainly: Hydrolysis by α-glucosidase derived from rice. Type of series: biochemical. As to conditions: pH 4.0, 37°C., 18 hours. Here is the method: as §1
A short description of series [3]: Hydrolysis by rat intestinal acetone powder. The note with it: pH 6.0, 37°C., 18 hours. Format: in vitro ADME. Here is the method:
as §1

The nature of series [4]: Acute toxicity test (Experiment 8). The note with it: mouse, in vivo, po. An excerpt:
(§2) By using 7-week old dd-strain mice, the non-reducing saccharide preparation P I, P II, P III, P IV or P V was orally administered to the mice for acute toxicity test.

Another series concerns mice. Put plainly: Acute toxicity test (Experiment 8). The note with it: oral, highest possible doses.
Excerpt: as §2

The target of series [5] is T1, trehalose-releasing enzyme (Rhizobium sp. M-11, UniProt Q53238).
T1 construct: M-11 culture
T1 sequence (Q53238 1-596): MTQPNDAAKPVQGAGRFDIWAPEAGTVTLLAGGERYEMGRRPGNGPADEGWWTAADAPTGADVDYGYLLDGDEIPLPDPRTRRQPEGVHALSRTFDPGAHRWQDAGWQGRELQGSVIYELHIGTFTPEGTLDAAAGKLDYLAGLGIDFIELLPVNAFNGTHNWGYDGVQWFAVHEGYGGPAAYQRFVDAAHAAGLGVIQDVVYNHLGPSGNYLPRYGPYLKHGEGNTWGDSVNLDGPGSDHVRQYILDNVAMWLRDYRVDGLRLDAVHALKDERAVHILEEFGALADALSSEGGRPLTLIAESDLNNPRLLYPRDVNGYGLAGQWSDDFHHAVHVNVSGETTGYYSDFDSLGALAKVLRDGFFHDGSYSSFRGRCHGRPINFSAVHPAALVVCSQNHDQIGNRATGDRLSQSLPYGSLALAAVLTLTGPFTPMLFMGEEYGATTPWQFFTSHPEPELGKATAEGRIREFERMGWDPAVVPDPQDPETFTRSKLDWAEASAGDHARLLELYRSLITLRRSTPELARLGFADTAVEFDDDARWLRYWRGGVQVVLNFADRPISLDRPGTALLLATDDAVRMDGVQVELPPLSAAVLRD
Put plainly: Action of trehalose-releasing enzyme on α-glycosyltrehalose and maltooligosaccharides (Table 13). The note with it: 20% substrate, 2 units/g, 40°C., pH 7.0, 48 hours; label = substrate. Format: biochemical. Here is the method:
An aqueous solution containing 20%, d.s.b., of one of the above 5 non-reducing saccharide preparations, namely α-glycosyltrehalose preparations, was prepared, followed by mixing it with 2 units/g substrate, d.s.b., of the purified trehalose-releasing enzyme obtained in Experiment 15, and subjecting the resultant to an enzymatic reaction at 40° C. and pH 7.0 for 48 hours. The resultant each reaction mixture was desalted, and analyzed for saccharide composition on HPLC using "WAKOBEADS WB-T-330 column", a column of Wako Pure Chemical Industries Ltd., Tokyo, Japan. As a control, a fresh preparation of the same trehalose-releasing enzyme was allowed to act on maltotriose, maltotetraose, maltopentaose, maltohexaose or maltoheptaose, and the resultant each reaction mixture was analyzed for saccharide composition on HPLC.

The subject of series [6] is trehalose derived from pig kidney. In words: Hydrolysis of trehalose by enzyme derived from pig kidney. Format: biochemical. The note with it: pH 5.7, 37°C., 18 hours (Experiment 7). The protocol:
To purify trehalose in each reaction mixture, it was subjected to column chromatography using a column packed with "XT-1016", a strong-acid cation exchange resin in Na^+ -form commercialized by Tokyo Organic Chemical Industries, Ltd., Tokyo, Japan, followed by recovering fractions containing 97% or more of trehalose. The fractions were pooled and concentrated into an about 65% solution which was then allowed to stand at 25° C. for 2 days to crystallize trehalose into hydrous crystalline trehalose, followed by separating and drying it in vacuo to obtain a high-purity trehalose preparation with a purity of 99% or more, d.s.b. The yields of trehalose from glucosyltrehalose, maltosyltrehalose, maltotriosyltrehalose, maltotetraosyltrehalose and maltopentaosyltrehalose used as a substrate were respectively 9.5%, 14.9%, 16.0%, 18.5% and 17.7%, d.s.b. The high-purity trehalose preparations and a commercially available trehalose specimen as a standard were studied for melting point, heat of fusion, specific rotation, infrared absorption spectrum, powdery X-ray diffraction pattern, and readiness of hydrolysis by a […] derived from pig kidney, commercialized by Sigma Chemical Co., St. Louise, USA.

Series [7] is described as follows: Utilization test in vivo, oral administration to healthy male volunteers. More on the design: species or system human. The note with it: 30 g oral. Here is the method: In accordance with the method as reported by H. Atsuji et al. in "Rinsho-Eiyo", Vol.41, No.2, pp.200-208 (1972), 30 g of a high-purity trehalose preparation with a purity of 99.5%, d.s.b., obtained by the method in Experiment 17 was dissolved in water into a 20 w/v % aqueous solution which was then orally administered to 6 healthy male volunteers. The volunteers were collected their blood at a prescribed time interval, and each collected blood was assayed for blood sugar- and insulin-levels. As a control Glucose was used.

Where [8] appears, read: one unit glucoamylase, pH 4.5, 40°C., 6 hours.
[9] abbreviates: one unit, pH 6.9, 37°C., 18 hours.

Consider `OC[C@H]1O[C@H](O[C@H]2O[C@H](CO)[C@@H](O[C@H]3O[C@H](CO)[C@@H](O[C@H]4O[C@H](CO)[C@@H](O[C@H]5O[C@H](CO)[C@@H](O)[C@H](O)[C@H]5O)[C@H](O)[C@H]4O)[C@H](O)[C@H]3O)[C@H](O)[C@H]2O)[C@H](O)[C@@H](O)[C@@H]1O` [P III, α-maltotriosyltrehalose], for which the “DE (reducing power)” value in series [1] came out at 0.10. Also, in [2], the “Coloration degree relative to corresponding material maltooligosaccharides” value is 3-6% and the “Coloration degree (480 nm)” value was found to be 0.012. Besides, in the series with glucoamylase, the “Hydrolysis by glucoamylase” value is “hydrolyzed into 3 glucose molecules and one trehalose molecule”. Besides, in the series on glucoamylase (setting [8]), the Glucose is recorded as 61.4%, the “Molecular ratio (Glucose/Trehalose)” value was 3.02 and the Trehalose amounted to 38.6%. The “Hydrolysis by β-amylase” value with β-amylase is “one maltose molecule and one P I molecule”. Besides, the “Hydrolysis by α-amylase” value in the series with α-amylase is given as “hydrolyzed by the α-amylase into lower molecular weight oligosaccharides”. Also, in the series on α-amylase (setting [9]), the “Saccharide composition of hydrolysate by α-amylase: G1 (glucose)” value is reported as 1.2, the “Saccharide composition of hydrolysate by α-amylase: G2 (maltose)” value came out at 33.0, the “Saccharide composition of hydrolysate by α-amylase: G3 (maltotriose)” value is given as 0 and the “Saccharide composition of hydrolysate by α-amylase: P I” value was found to be 61.0. Moreover, the “Saccharide composition of hydrolysate by α-amylase: P II” value in the series on α-amylase (setting [9]) is 4.8. Moreover, in the series with α-glucosidase, the “Saccharide composition of hydrolysate by α-glucosidase: Glucose” value is listed as 61.7%, the “Saccharide composition of hydrolysate by α-glucosidase: Other saccharides” value stood at 0.2% and the “Saccharide composition of hydrolysate by α-glucosidase: Trehalose” value is reported as 38.1%. For the same compound, in [3], the “Saccharide composition of hydrolysate by rat intestinal acetone powder: Glucose” value was 62.0%, the “Saccharide composition of hydrolysate by rat intestinal acetone powder: Other saccharides” value worked out at 0.4% and the “Saccharide composition of hydrolysate by rat intestinal acetone powder: Trehalose” value amounted to 37.6%. For the same compound, the LD50 – broadly, the dose expected to kill half of the subjects tested – in series [4] was at least 50000 mg/kg. The Mortality entry with mice is “no mouse died”. Further, in [5], the “Percentage of reducing saccharide released (glucose, maltose, maltotriose, maltotetraose or maltopentaose)” value worked out at 60.0% and the “Percentage of trehalose released” value is reported as 39.5%.
Consider `OC[C@H]1O[C@H](O[C@H]2O[C@H](CO)[C@@H](O)[C@H](O)[C@H]2O)[C@H](O)[C@@H](O)[C@@H]1O` [Trehalose, α,α-trehalose], for which, in series [2], the “Coloration degree relative to glucose or maltose” value is 0.4-0.6%, the “Maillard reaction” value is listed as “substantially free from the maillard reaction” and the “Coloration degree (480 nm)” value is recorded as 0.006. Moreover, the “Hydrolysis to glucose by pig kidney enzyme” value in [6] was “hydrolyzed by trehalose into glucose molecules; also recorded: decomposed into glucose molecules”. In [7] (20 w/v % aqueous solution), the “Time of maximum blood sugar level” value is 0.5 to 1 h and the “Time of maximum insulin level” value was in the range of 0.5 to 1 h. In addition, the “Utilization by the body” value in [7] (control glucose) was “readily assimilated, absorbed, metabolized and utilized by the body as an energy source”.
